Activity calls are given as the source filed them. No cut-off for these calls is given here. Where a SMILES comes first, the peptide text is derived from it. [ ]: non-standard residue; d: D form. The star is where a group is joined. dHyp = O=C(O)[C@H]1C[C@H](O)CN1; Cha = N[C@@H](CC1CCCCC1)C(=O)O; Aib = CC(C)(N)C(=O)O; Bz = O=C(c1ccccc1)*
Legend:
Mus musculus [1] = assay: Anorectic activity in C57BL/6J mouse assessed as inhibition of food intake at 0.3 mg/kg/day, sc administered by infusion as continuous dosing for 3 days relative to 1 mg/kg/day PYY (3 to 36 residues); type: functional
Mus musculus [2] = assay: Antiobesity activity in obese C57BL/6J mouse assessed as body weight loss at 0.3 mg/kg/day administered via subcutaneous osmotic pumps by continuous dosing measured on day 11 relative to control; type: functional
Mus musculus [3] = assay: Antidiabetic activity in type 2 diabetes obese mouse assessed as reduction in plasma glucose level at 0.03 to 0.3 mg/kg/day administered via subcutaneous osmotic pumps by continuous dosing for 11 days; type: functional, organism-based
Mus musculus [4] = assay: Anorectic activity in C57BL/6J mouse assessed as inhibition of food intake at 0.1 mg/kg/day, sc administered by infusion as continuous dosing for 3 days relative to 1 mg/kg/day PYY (3 to 36 residues); type: functional
Mus musculus [5] = assay: Anorectic activity in lean C57BL/6J mouse assessed as inhibition of cumulative food intake at 3 to 300 nmol/kg through bolus subcutaneous administration measured 24 hrs post dose; type: functional, organism-based
[6] = Plasma concentration in C57BL/6J mouse at 1 mg/kg, iv after 5 mins by LC/MS/MS analysis; type: ADME, organism-based
[7] = biological target: T1, Neuropeptide Y receptor type 2 (Homo sapiens, UniProt P49146); assay: Agonist activity at human Y2 receptor expressed in CHO cell membranes after 120 mins by [35S]GTPgammaS binding assay; type: functional
T1 sequence (P49146 whole entry): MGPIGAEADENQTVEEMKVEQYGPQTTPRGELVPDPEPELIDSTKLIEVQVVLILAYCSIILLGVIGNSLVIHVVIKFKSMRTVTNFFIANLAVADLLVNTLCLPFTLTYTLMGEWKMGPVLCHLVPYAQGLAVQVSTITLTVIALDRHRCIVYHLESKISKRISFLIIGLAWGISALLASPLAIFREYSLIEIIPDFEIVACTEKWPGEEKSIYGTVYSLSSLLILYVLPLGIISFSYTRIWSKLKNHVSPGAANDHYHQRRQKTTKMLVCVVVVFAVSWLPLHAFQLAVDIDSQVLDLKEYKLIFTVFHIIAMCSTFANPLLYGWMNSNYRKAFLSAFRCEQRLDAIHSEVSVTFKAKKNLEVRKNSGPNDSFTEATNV

Mus musculus [8] = assay: Antidiabetic activity in type 2 diabetes obese mouse assessed as reduction in glycated hemoglobin level at 0.03 to 0.3 mg/kg/day administered via subcutaneous osmotic pumps by continuous dosing for 11 days; type: functional, organism-based
[9] = biological target: T1, Neuropeptide Y receptor type 2; assay: Displacement of [125I]peptide YY from human Y2 receptor expressed in CHO cell membranes after 60 mins by TopCount scintillation counting analysis
Mus musculus [10] = assay: Mean absorption time in C57BL/6J mouse at 1 mg/kg, sc by LC/MS/MS analysis; type: ADME, organism-based; settings: in vivo
[11] = AUC (0 to 24 hrs) in C57BL/6J mouse at 1 mg/kg, sc by LC/MS/MS analysis; type: ADME, organism-based; set-up: dose 1 mg/kg, time < 24 hr, route subcutaneous; settings: in vivo
[12] = Bioavailability in C57BL/6J mouse at 1 mg/kg, sc by LC/MS/MS analysis; type: ADME, organism-based; settings: in vivo
[13] = Cmax in C57BL/6J mouse at 1 mg/kg, sc by LC/MS/MS analysis; type: ADME, organism-based; set-up: dose 1 mg/kg, route subcutaneous; settings: in vivo
Mus musculus [14] = assay: Antiobesity activity in obese C57BL/6J mouse assessed as inhibition of cumulative food intake at 0.03 to 0.3 mg/kg/day administered via subcutaneous osmotic pumps by continuous dosing for 11 days; type: functional, organism-based
[15] = Total clearance in C57BL/6J mouse at 1 mg/kg, iv by LC/MS/MS analysis; type: ADME, organism-based; settings: in vivo
[16] = AUC (0 to 24 hrs) in C57BL/6J mouse at 1 mg/kg, iv by LC/MS/MS analysis; type: ADME, organism-based; set-up: time < 24 hr, dose 1 mg/kg, route intravenous; settings: in vivo
[17] = Mean residence time in C57BL/6J mouse at 1 mg/kg, iv by LC/MS/MS analysis; type: ADME, organism-based; settings: in vivo
Mus musculus [18] = assay: Anorectic activity in C57BL/6J mouse assessed as inhibition of food intake at 0.03 mg/kg/day, sc administered by infusion as continuous dosing for 3 days relative to 1 mg/kg/day PYY (3 to 36 residues); type: functional
[19] = Volume of distribution at steady state in C57BL/6J mouse at 1 mg/kg, iv by LC/MS/MS analysis; type: ADME, organism-based; settings: in vivo, read-out: Vdss
Mus musculus [20] = assay: Anorectic activity in lean C57BL/6J mouse assessed as inhibition of cumulative food intake at 3 to 300 nmol/kg through bolus subcutaneous administration measured 3 to 24 hrs post dose; type: functional, organism-based
[21] = Tmax in C57BL/6J mouse at 1 mg/kg, sc by LC/MS/MS analysis; type: ADME, organism-based; settings: in vivo
[22] = Mean residence time in C57BL/6J mouse at 1 mg/kg, sc by LC/MS/MS analysis; type: ADME, organism-based; settings: in vivo
Mus musculus [23] = assay: Anorectic activity in C57BL/6J mouse assessed as inhibition of food intake at 1 mg/kg/day, sc administered by infusion as continuous dosing for 3 days relative to 1 mg/kg/day PYY (3 to 36 residues); type: functional; settings: 72 h

Row | SMILES | inhibition (INH) (Mus musculus [4]) [%] | EC50 [7] [nM] | IC50 [9] [nM] | MAT (Mus musculus [10]) [h] | bioavailability [12] [%] | inhibition in vivo at 1 mg/kg/day (Mus musculus [23]) [%] | other results
1 | CC(=O)N[C@@H](CO)C(=O)N1CCC[C@@H]1C(=O)N[C@@H](CCCNC(=N)N)C(=O)N[C@@H](Cc1ccncc1)C(=O)N[C@@H](CC1CCCCC1)C(=O)NC(C)(C)C(=O)N[C@@H](CC(N)=O)C(=O)N[C@@H](CCCCN)C(=O)NC(C)(C)C(=O)N[C@H](C(=O)N[C@@H](CCCNC(=N)N)C(=O)N[C@@H](CCC(N)=O)C(=O)N[C@@H](CCCNC(=N)N)C(=O)N[C@@H](CC1CCCCC1)C(N)=O)[C@@H](C)O | 80 | 0.2 | 0.92 | 0.1 | 66.6 |  | inhibition (INH) (Mus musculus [1]): 112%; Activity (Mus musculus [2]): 23%; Activity (Mus musculus [3]): Active; Activity (Mus musculus [5]): Active; concentration at 5 min [6]: 1060 nM; Activity (Mus musculus [8]): Active; AUC(0-t) at 24 h [11]: 0.154 µM·h; Cmax [13]: 283 nM; inhibition (Mus musculus [14]): Active; clearance [15]: 39.9 mL/min/kg; AUC(0-t) at 24 h [16]: 0.231 µM·h; MRT [17]: 20.4 min; inhibition (INH) (Mus musculus [18]): 38%; Vd [19]: 0.809 L/kg; inhibition (Mus musculus [20]): Active; Tmax [21]: 10.2 min; MRT [22]: 26.4 min
2 | CC(C)C[C@H](NC(=O)[C@H](CC(N)=O)NC(=O)[C@H](CC1CCCCC1)NC(=O)[C@H](CC1CCCCC1)NC(=O)[C@H](Cc1cnc[nH]1)NC(=O)[C@H](CCCNC(=N)N)NC(=O)c1ccccc1)C(=O)NC(C)(C)C(=O)N[C@H](C(=O)N[C@@H](CCCNC(=N)N)C(=O)N[C@@H](CCC(N)=O)C(=O)N[C@@H](CCCNC(=N)N)C(=O)N[C@@H](CC1CCCCC1)C(N)=O)[C@@H](C)O (Bz-RH[Cha][Cha]NL[Aib]TRQR[Cha]-NH2) |  | 2 | 7.4 | 2.72 | 5.9 |  | 
3 | CC(=O)N[C@@H](CO)C(=O)N1C[C@@H](O)C[C@@H]1C(=O)N[C@@H](CCCNC(=N)N)C(=O)N[C@@H](Cc1cnc[nH]1)C(=O)N[C@@H](CC1CCCCC1)C(=O)N[C@@H](CC1CCCCC1)C(=O)N[C@@H](CC(N)=O)C(=O)N[C@@H](CC(C)C)C(=O)NC(C)(C)C(=O)N[C@H](C(=O)N[C@@H](CCCNC(=N)N)C(=O)N[C@@H](CCC(N)=O)C(=O)N[C@@H](CCCNC(=N)N)C(=O)N[C@@H](CC1CCCCC1)C(N)=O)[C@@H](C)O (Ac-S[dHyp]RH[Cha][Cha]NL[Aib]TRQR[Cha]-NH2) | 18 | 0.2 | 0.7 | 0.14 | 18.6 |  | 
4 | CC(=O)N[C@@H](CO)C(=O)N1CCC[C@@H]1C(=O)N[C@@H](CCCNC(=N)N)C(=O)N[C@@H](Cc1cnc[nH]1)C(=O)N[C@@H](CC1CCCCC1)C(=O)N[C@@H](CC1CCCCC1)C(=O)N[C@@H](CC(N)=O)C(=O)N[C@@H](CCCCN)C(=O)NC(C)(C)C(=O)N[C@H](C(=O)N[C@@H](CCCNC(=N)N)C(=O)N[C@@H](CCC(N)=O)C(=O)N[C@@H](CCCNC(=N)N)C(=O)N[C@@H](CC1CCCCC1)C(N)=O)[C@@H](C)O |  | 0.2 | 0.55 |  |  | 79 | 
5 | CC(=O)N[C@@H](CO)C(=O)N1CCC[C@@H]1C(=O)N[C@@H](CCCNC(=N)N)C(=O)N[C@@H](Cc1ccncc1)C(=O)N[C@@H](CC1CCCCC1)C(=O)N[C@@H](CC1CCCCC1)C(=O)N[C@@H](CC(N)=O)C(=O)N[C@@H](CC(C)C)C(=O)NC(C)(C)C(=O)N[C@H](C(=O)N[C@@H](CCCNC(=N)N)C(=O)N[C@@H](CCC(N)=O)C(=O)N[C@@H](CCCNC(=N)N)C(=O)N[C@@H](CC1CCCCC1)C(N)=O)[C@@H](C)O |  | 0.19 | 0.49 |  |  | 72 | 

Source: ChEMBL document CHEMBL4052740, “Potent antiobesity effect of a short-length peptide YY-analogue continuously administered in mice” (Bioorg Med Chem Lett, 2017)
